The values that follow are results of earlier work, collected in patent US20240032540A1, “MICROPARTICLE COMPOSITIONS COMPRISING FUNGICIDES” (BASF CORPORATION, priority 2020, published 2024).

Molecules are shown by their SMILES.

Take `O=C(NCCc1ncc(C(F)(F)F)cc1Cl)c1ccccc1C(F)(F)F` [Fluopyram, N-{2-[3-chloro-5-(trifluoromethyl)-2-pyridyl]ethyl}-a,a,a-trifluoro-o-toluamide]: the solubility in water entry is “only sparingly soluble in water”.
